Tests used:
Assay type in all cases: in vivo
[1] = test system: corn (Zea mays); test: Test A postemergence; settings: 0 to 100 scale, 0 no effect, 100 complete control, approx. 10 days
Source text: (§1) Seeds of barnyardgrass (Echinochloa crus-galli), large crabgrass (Digitaria sanguinalis), giant foxtail (Setaria faberii), morningglory (Ipomoea spp.), pigweed (Amaranthus retroflexus), velvetleaf (Abutilon theophrasti), wheat (Triticum aestivum) and corn (Zea mays) were planted into a blend of loam soil and sand and treated preemergence with a directed soil spray using test chemicals formulated in a non-phytotoxic solvent mixture which included a surfactant. At the same time these species were also treated with postemergence applications of test compounds formulated in the same manner. Plants ranged in height from 2 to 10 cm and were in the one- to two-leaf stage for the postemergence treatments. Treated plants and untreated controls were maintained in a greenhouse for approximately 10 days, after which time all treated plants were compared to untreated controls and visually evaluated for injury. Plant response ratings, summarized in Table A, are based on a 0 to 100 scale where 0 is no effect and 100 is complete control.

[2] = test system: barnyardgrass (Echinochloa crus-galli); test: Test A postemergence; settings: 0 to 100 scale, 0 no effect, 100 complete control, approx. 10 days
Source text: as §1

[3] = test system: large crabgrass (Digitaria sanguinalis); test: Test A postemergence; settings: 0 to 100 scale, 0 no effect, 100 complete control, approx. 10 days
Source text: as §1

[4] = test system: morningglory (Ipomoea spp.); test: Test A postemergence; settings: 0 to 100 scale, 0 no effect, 100 complete control, approx. 10 days
Source text: as §1

[5] = test system: wheat (Triticum aestivum); test: Test A postemergence; settings: 0 to 100 scale, 0 no effect, 100 complete control, approx. 10 days
Source text: as §1

[6] = test system: velvetleaf (Abutilon theophrasti); test: Test A postemergence; settings: 0 to 100 scale, 0 no effect, 100 complete control, approx. 10 days
Source text: as §1

[7] = test system: pigweed (Amaranthus retroflexus); test: Test A postemergence; settings: 0 to 100 scale, 0 no effect, 100 complete control, approx. 10 days
Source text: as §1

[8] = test system: giant foxtail (Setaria faberii); test: Test A postemergence; settings: 0 to 100 scale, 0 no effect, 100 complete control, approx. 10 days
Source text: as §1

[9] = test system: corn (Zea mays); test: Test A preemergence; settings: 0 to 100 scale, 0 no effect, 100 complete control, approx. 10 days
Source text: as §1

[10] = test system: barnyardgrass (Echinochloa crus-galli); test: Test A preemergence; settings: 0 to 100 scale, 0 no effect, 100 complete control, approx. 10 days
Source text: as §1

[11] = test system: large crabgrass (Digitaria sanguinalis); test: Test A preemergence; settings: 0 to 100 scale, 0 no effect, 100 complete control, approx. 10 days
Source text: as §1

[12] = test system: morningglory (Ipomoea spp.); test: Test A preemergence; settings: 0 to 100 scale, 0 no effect, 100 complete control, approx. 10 days
Source text: as §1

[13] = test system: wheat (Triticum aestivum); test: Test A preemergence; settings: 0 to 100 scale, 0 no effect, 100 complete control, approx. 10 days
Source text: as §1

[14] = test system: velvetleaf (Abutilon theophrasti); test: Test A preemergence; settings: 0 to 100 scale, 0 no effect, 100 complete control, approx. 10 days
Source text: as §1

[15] = test system: pigweed (Amaranthus retroflexus); test: Test A preemergence; settings: 0 to 100 scale, 0 no effect, 100 complete control, approx. 10 days
Source text: as §1

[16] = test system: giant foxtail (Setaria faberii); test: Test A preemergence; settings: 0 to 100 scale, 0 no effect, 100 complete control, approx. 10 days
Source text: as §1

[17] = test system: barnyardgrass (Echinochloa crus-galli); test: Test B flooded paddy test; settings: Flood
Source text: (§2) Plant species in the flooded paddy test consisted of rice (Oryza sativa), umbrella sedge (Cyperus difformis), ducksalad (Heteranthera limosa) and barnyardgrass (Echinochloa crus-galli) grown to the 2-leaf stage for testing. At time of treatment, test pots were flooded to 3 cm above the soil surface, treated by application of test compounds directly to the paddy water, and then maintained at that water depth for the duration of the test. Treated plants and controls were maintained in a greenhouse for 13 to 15 days, after which time all species were compared to controls and visually evaluated. Plant response ratings, summarized in Table B, are based on a scale of 0 to 100 where 0 is no effect and 100 is complete control. A dash (-) response means no test result.

[18] = test system: ducksalad (Heteranthera limosa); test: Test B flooded paddy test; settings: Flood, scale 0 to 100
Source text: as §2

[19] = test system: rice (Oryza sativa); test: Test B flooded paddy test; settings: Flood, scale 0 to 100
Source text: as §2

[20] = test system: umbrella sedge (Cyperus difformis); test: Test B flooded paddy test; settings: Flood, scale 0 to 100
Source text: as §2

[21] = 250 g ai/ha, scale 0 to 100 (0 no effect, 100 complete control)

COCCn1c(-c2cccc(F)c2)c(Cl)nc(C(=O)C2=C(O)CCCC2=O)c1=O [Compound 7, 5-chloro-6-(3-fluorophenyl)-3-[(2-hydroxy-6-oxo-1-cyclohexen-1-yl)carbonyl]-1-(2-methoxyethyl)-2(1H)pyrazinone]
Plant response rating, Corn ([1]; 125 g ai/ha): 0
Plant response rating, Corn ([1]; 500 g ai/ha): 20
Plant response rating, Barnyardgrass ([2]; 125 g ai/ha): 20
Plant response rating, Barnyardgrass ([2]; 500 g ai/ha): 80
Plant response rating, Crabgrass, Large ([3]; 125 g ai/ha): 0
Plant response rating, Crabgrass, Large ([3]; 500 g ai/ha): 10
Plant response rating, Morningglory ([4]; 125 g ai/ha): 80
Plant response rating, Morningglory ([4]; 500 g ai/ha): 90
Plant response rating, Wheat ([5]; 125 g ai/ha): 0
Plant response rating, Wheat ([5]; 500 g ai/ha): 0
Plant response rating, Velvetleaf ([6]; 125 g ai/ha): 100
Plant response rating, Velvetleaf ([6]; 500 g ai/ha): 100
Plant response rating, Pigweed ([7]; 125 g ai/ha): 80
Plant response rating, Pigweed ([7]; 500 g ai/ha): 90
Plant response rating, Foxtail, Giant ([8]; 125 g ai/ha): 0
Plant response rating, Foxtail, Giant ([8]; 500 g ai/ha): 0
Plant response rating, Corn ([9]; 125 g ai/ha): 0
Plant response rating, Corn ([9]; 500 g ai/ha): 0
Plant response rating, Barnyardgrass ([10]; 125 g ai/ha): 0
Plant response rating, Barnyardgrass ([10]; 500 g ai/ha): 10
Plant response rating, Crabgrass, Large ([11]; 125 g ai/ha): 0
Plant response rating, Crabgrass, Large ([11]; 500 g ai/ha): 0
Plant response rating, Morningglory ([12]; 125 g ai/ha): 0
Plant response rating, Morningglory ([12]; 500 g ai/ha): 20
Plant response rating, Wheat ([13]; 125 g ai/ha): 0
Plant response rating, Wheat ([13]; 500 g ai/ha): 0
Plant response rating, Velvetleaf ([14]; 125 g ai/ha): 0
Plant response rating, Velvetleaf ([14]; 500 g ai/ha): 20
Plant response rating, Pigweed ([15]; 125 g ai/ha): 0
Plant response rating, Pigweed ([15]; 500 g ai/ha): 50
Plant response rating, Foxtail, Giant ([16]; 125 g ai/ha): 0
Plant response rating, Foxtail, Giant ([16]; 500 g ai/ha): 0
Plant response rating, Barnyardgrass ([17]; 31 g ai/ha, scale 0 to 100): 0
Plant response rating, Barnyardgrass ([17]; 62 g ai/ha, scale 0 to 100): 0
Plant response rating, Barnyardgrass ([17]; 125 g ai/ha, scale 0 to 100): 10
Plant response rating, Barnyardgrass [17, 21]: 20
Plant response rating, Ducksalad ([18]; 31 g ai/ha): 0
Plant response rating, Ducksalad ([18]; 62 g ai/ha): 40
Plant response rating, Ducksalad ([18]; 125 g ai/ha): 50
Plant response rating, Ducksalad ([18]; 250 g ai/ha): 80
Plant response rating, Rice ([19]; 31 g ai/ha): 0
Plant response rating, Rice ([19]; 62 g ai/ha): 0
Plant response rating, Rice ([19]; 125 g ai/ha): 0
Plant response rating, Rice ([19]; 250 g ai/ha): 15
Plant response rating, Sedge, Umbrella ([20]; 31 g ai/ha): 0
Plant response rating, Sedge, Umbrella ([20]; 62 g ai/ha): 20
Plant response rating, Sedge, Umbrella ([20]; 125 g ai/ha): 50
Plant response rating, Sedge, Umbrella ([20]; 250 g ai/ha): 75

COCCn1c(-c2cc(F)cc(F)c2)cnc(C(=O)C2=C(O)CCCC2=O)c1=O [Compound 5, 6-(3,5-difluorophenyl)-3-[(2-hydroxy-6-oxo-1-cyclohexen-1-yl)carbonyl]-1-(2-methoxyethyl)-2(1H)-pyrazinone]
Plant response rating, Corn ([1]; 31 g ai/ha): 10
Plant response rating, Corn ([1]; 125 g ai/ha): 50
Plant response rating, Corn ([1]; 500 g ai/ha): 60
Plant response rating, Barnyardgrass ([2]; 31 g ai/ha): 50
Plant response rating, Barnyardgrass ([2]; 125 g ai/ha): 90
Plant response rating, Barnyardgrass ([2]; 500 g ai/ha): 90
Plant response rating, Crabgrass, Large ([3]; 31 g ai/ha): 70
Plant response rating, Crabgrass, Large ([3]; 125 g ai/ha): 90
Plant response rating, Crabgrass, Large ([3]; 500 g ai/ha): 90
Plant response rating, Morningglory ([4]; 31 g ai/ha): 80
Plant response rating, Morningglory ([4]; 125 g ai/ha): 90
Plant response rating, Morningglory ([4]; 500 g ai/ha): 90
Plant response rating, Wheat ([5]; 31 g ai/ha): 0
Plant response rating, Wheat ([5]; 125 g ai/ha): 30
Plant response rating, Wheat ([5]; 500 g ai/ha): 30
Plant response rating, Velvetleaf ([6]; 31 g ai/ha): 70
Plant response rating, Velvetleaf ([6]; 125 g ai/ha): 80
Plant response rating, Velvetleaf ([6]; 500 g ai/ha): 100
Plant response rating, Pigweed ([7]; 31 g ai/ha): 80
Plant response rating, Pigweed ([7]; 125 g ai/ha): 100
Plant response rating, Pigweed ([7]; 500 g ai/ha): 100
Plant response rating, Foxtail, Giant ([8]; 31 g ai/ha): 30
Plant response rating, Foxtail, Giant ([8]; 125 g ai/ha): 60
Plant response rating, Foxtail, Giant ([8]; 500 g ai/ha): 80
Plant response rating, Corn ([9]; 31 g ai/ha): 0
Plant response rating, Corn ([9]; 125 g ai/ha): 0
Plant response rating, Corn ([9]; 500 g ai/ha): 0
Plant response rating, Barnyardgrass ([10]; 31 g ai/ha): 0
Plant response rating, Barnyardgrass ([10]; 125 g ai/ha): 50
Plant response rating, Barnyardgrass ([10]; 500 g ai/ha): 80
Plant response rating, Crabgrass, Large ([11]; 31 g ai/ha): 20
Plant response rating, Crabgrass, Large ([11]; 125 g ai/ha): 100
Plant response rating, Crabgrass, Large ([11]; 500 g ai/ha): 100
Plant response rating, Morningglory ([12]; 31 g ai/ha): 0
Plant response rating, Morningglory ([12]; 125 g ai/ha): 40
Plant response rating, Morningglory ([12]; 500 g ai/ha): 80
Plant response rating, Wheat ([13]; 31 g ai/ha): 0
Plant response rating, Wheat ([13]; 125 g ai/ha): 0
Plant response rating, Wheat ([13]; 500 g ai/ha): 0
Plant response rating, Velvetleaf ([14]; 31 g ai/ha): 30
Plant response rating, Velvetleaf ([14]; 125 g ai/ha): 70
Plant response rating, Velvetleaf ([14]; 500 g ai/ha): 80
Plant response rating, Pigweed ([15]; 31 g ai/ha): 40
Plant response rating, Pigweed ([15]; 125 g ai/ha): 90
Plant response rating, Pigweed ([15]; 500 g ai/ha): 90
Plant response rating, Foxtail, Giant ([16]; 31 g ai/ha): 20
Plant response rating, Foxtail, Giant ([16]; 125 g ai/ha): 70
Plant response rating, Foxtail, Giant ([16]; 500 g ai/ha): 80
Plant response rating, Barnyardgrass ([17]; 31 g ai/ha, scale 0 to 100): 0
Plant response rating, Barnyardgrass ([17]; 62 g ai/ha, scale 0 to 100): 0
Plant response rating, Barnyardgrass ([17]; 125 g ai/ha, scale 0 to 100): 25
Plant response rating, Barnyardgrass [17, 21]: 80
Plant response rating, Ducksalad ([18]; 31 g ai/ha): 0
Plant response rating, Ducksalad ([18]; 62 g ai/ha): 40
Plant response rating, Ducksalad ([18]; 125 g ai/ha): 60
Plant response rating, Ducksalad ([18]; 250 g ai/ha): 90
Plant response rating, Rice ([19]; 31 g ai/ha): 0
Plant response rating, Rice ([19]; 62 g ai/ha): 0
Plant response rating, Rice ([19]; 125 g ai/ha): 10
Plant response rating, Rice ([19]; 250 g ai/ha): 20
Plant response rating, Sedge, Umbrella ([20]; 31 g ai/ha): 50
Plant response rating, Sedge, Umbrella ([20]; 62 g ai/ha): 70
Plant response rating, Sedge, Umbrella ([20]; 125 g ai/ha): 90
Plant response rating, Sedge, Umbrella ([20]; 250 g ai/ha): 100
